Several values for one entry are separate records, joined by “and”; a condition that tells them apart may be missing. Equal values may be shown once.
Experiments:
Format in all cases: biochemical
[1] = tested on: sarcosine oxidase (Toyobo); assay: Toyobo Sarcosine Oxidase Enzyme Absorbance with BSA and MIT; details: 0 mg/mL BSA; for Sarcosine Oxidase Enzyme Absorbance, MEAN of 1-5 / Sarcosine Oxidase Enzyme Absorbance, solutions 1-5: 37° C.
Procedure: (§1) Tables 1-4 depict aqueous solutions comprising varying concentrations of BSA (at concentrations of 0 mg/mL, 5 mg/mL, 25 mg/mL, and 50 mg/mL), varying concentrations of MIT (at concentrations of 50 parts per million and 100 parts per million) or Proclin™ 300 (at concentrations of 0.7% and 1.4%) biocides over a particular time period (measurements were taken at days 0, 4, and 14 after exposure of the enzyme(s) to the aqueous solutions) and the associated enzyme absorbance measurements for sarcosine oxidase (commercially offered for sale by BBI Solutions and Toyobo). Absorbance measurements of the sarcosine oxidase enzyme(s) were taken via spectrophotometer for each aqueous solution (represented as columns 1-5 in Tables 1-4—column 6 is a blank), the absorbance being directly proportional to the enzyme activity being measured-which for Tables 1-4 is sarcosine oxidase enzyme activity. Accordingly, the higher the absorbance measurement, the higher the enzyme activity of sarcosine oxidase. Columns 7-11 represent five replicate readings in which the aqueous solution only contains BSA (i.e., there is no biocide(s) present in the aqueous solution). In addition, the mean values, standard deviations, and coefficients of variation are also presented for the enzyme activity/absorbance of each aqueous solution. All measurements were taken at 37° C.
As depicted below in Table 2, sarcosine oxidase (commercially offered for sale by Toyobo) enzyme activity is measured against various concentrations of MIT (biocide) and BSA (scavenger protein) over a period of 14 days (with absorbance measurements taken at 0, 4, and 14 days) for five different aqueous solutions (represented as columns 1-5-column 6 is a blank).

[2] = tested on: sarcosine oxidase (BBI Solutions); assay: BBI Solutions Sarcosine Oxidase Enzyme Absorbance with BSA and MIT; details: 0 mg/mL BSA; for Sarcosine Oxidase Enzyme Absorbance, MEAN of 1-5 / Sarcosine Oxidase Enzyme Absorbance, solutions 1-5: 37° C.
Procedure: as §1
As depicted below in Table 1, sarcosine oxidase (commercially offered for sale by BBI Solutions) enzyme activity is measured against various concentrations of MIT (biocide) and BSA (scavenger protein) over a period of 14 days (with absorbance measurements taken at 0, 4, and 14 days) for five different aqueous solutions (represented as columns 1-5—column 6 is a blank).

[3] = tested on: creatininase (BBI Solutions); assay: BBI Solutions Creatininase Enzyme Absorbance with BSA and MIT; details: 0 mg/mL BSA
Procedure: Table 5-8 depict aqueous solutions comprising varying concentrations of BSA (at concentrations of 0 mg/mL, 5 mg/mL, 25 mg/mL, and 50 mg/mL), varying concentrations of MIT (at concentrations of 50 parts per million and 100 parts per million) or Proclin™ 300 (at concentrations of 0.7% and 1.4%) biocide over a particular time period (measurements were taken at days 0, 4, and 14 after exposure of the enzyme(s) to the particular aqueous solutions) and the associated enzyme absorbance measurements for creatininase (commercially offered for sale by BBI Solutions and Toyobo). Absorbance measurements of the creatininase enzyme(s) were taken via spectrophotometer for each aqueous solution (represented as columns 1-5 in Tables 5-8—column 6 is a blank), the absorbance being directly proportional to the enzyme activity being measured-which for Tables 5-8 is creatininase enzyme activity. Accordingly, the higher the absorbance measurement, the higher the enzyme activity of creatininase. Columns 7-11 represent five replicate readings in which the solution only contains BSA (i.e., there is no biocide(s) present in the solution). In addition, the mean values, standard deviations, and coefficients of variation are all presented for the enzyme activity/absorbance of each aqueous solution. All measurements were taken at 37° C.
As depicted in Table 5, creatininase (commercially offered for sale by BBI Solutions) enzyme activity is measured against various concentrations of MIT (biocide) and BSA (scavenger protein) over a period of 14 days (with absorbance measurement taken at 0, 4, and 14 days) for five different aqueous solutions (represented as columns 1-5—column 6 is a blank).

[4] = tested on: creatininase (Toyobo); assay: Toyobo Creatininase Enzyme Absorbance with BSA and MIT; details: 0 mg/mL BSA
Source text: Absorbance measurements of the creatininase enzyme(s) were taken via spectrophotometer for each aqueous solution (represented as columns 1-5 in Tables 5-8—column 6 is a blank), the absorbance being directly proportional to the enzyme activity being measured-which for Tables 5-8 is creatininase enzyme activity. Accordingly, the higher the absorbance measurement, the higher the enzyme activity of creatininase. Columns 7-11 represent five replicate readings in which the solution only contains BSA (i.e., there is no biocide(s) present in the solution). In addition, the mean values, standard deviations, and coefficients of variation are all presented for the enzyme activity/absorbance of each aqueous solution. All measurements were taken at 37° C.
As depicted in Table 6, creatininase (commercially offered for sale by Toyobo) enzyme activity is measured against various concentrations of MIT (biocide) and BSA (scavenger protein) over a period of 14 days (with absorbance measurement taken at 0, 4, and 14 days) for five different aqueous solutions (represented as columns 1-5—column 6 is a blank).

Cn1sccc1=O [MIT, methylisothiazolinone, reference compound]
% Bias ([1]; Day 0, 50 ppm MIT vs no MIT): 0.8% | Sarcosine Oxidase Enzyme Absorbance, MEAN of 1-5 ([1]; Day 0, 50 ppm MIT): 1.42 | Sarcosine Oxidase Enzyme Absorbance, solutions 1-5 ([1]; Day 0, 50 ppm MIT): 1.463 and 1.462 and 1.447 and 1.446 | % Bias ([1]; Day 0, 100 ppm MIT vs no MIT): 2.6% | Sarcosine Oxidase Enzyme Absorbance, MEAN of 1-5 ([1]; Day 0, 100 ppm MIT): 1.44 | Sarcosine Oxidase Enzyme Absorbance, solutions 1-5 ([1]; Day 0, 100 ppm MIT): 1.491 and 1.45 and 1.5 and 1.478 and 1.464 | % Bias ([1]; Day 4, 50 ppm MIT vs no MIT): 101.5% | Sarcosine Oxidase Enzyme Absorbance, MEAN of 1-5 ([1]; Day 4, 50 ppm MIT): 0.25 | Sarcosine Oxidase Enzyme Absorbance, solutions 1-5 ([1]; Day 4, 50 ppm MIT): 0.277 and 0.275 and 0.272 and 0.283 and 0.282 | % Bias ([1]; Day 4, 100 ppm MIT vs no MIT): 115.9% | Sarcosine Oxidase Enzyme Absorbance, MEAN of 1-5 ([1]; Day 4, 100 ppm MIT): 0.27 | Sarcosine Oxidase Enzyme Absorbance, solutions 1-5 ([1]; Day 4, 100 ppm MIT): 0.302 and 0.304 and 0.298 and 0.317 | % Bias ([1]; Day 14, 50 ppm MIT vs no MIT): 7.4% | Sarcosine Oxidase Enzyme Absorbance, MEAN of 1-5 ([1]; Day 14, 50 ppm MIT): 0.11 | Sarcosine Oxidase Enzyme Absorbance, solutions 1-5 ([1]; Day 14, 50 ppm MIT): 0.154 and 0.153 and 0.151 and 0.159 and 0.16 | % Bias ([1]; Day 14, 100 ppm MIT vs no MIT): 8.8% | Sarcosine Oxidase Enzyme Absorbance, MEAN of 1-5 ([1]; Day 14, 100 ppm MIT): 0.13 | Sarcosine Oxidase Enzyme Absorbance, solutions 1-5 ([1]; Day 14, 100 ppm MIT): 0.163 and 0.176 and 0.168 and 0.172 | % Bias ([2]; Day 0, 50 ppm MIT vs no MIT): 3.8% | Sarcosine Oxidase Enzyme Absorbance, MEAN of 1-5 ([2]; Day 0, 50 ppm MIT): 1.43 | Sarcosine Oxidase Enzyme Absorbance, solutions 1-5 ([2]; Day 0, 50 ppm MIT): 1.463 and 1.459 and 1.507 and 1.474 and 1.477 | % Bias ([2]; Day 0, 100 ppm MIT vs no MIT): 1.3% | Sarcosine Oxidase Enzyme Absorbance, MEAN of 1-5 ([2]; Day 0, 100 ppm MIT): 1.39 | Sarcosine Oxidase Enzyme Absorbance, solutions 1-5 ([2]; Day 0, 100 ppm MIT): 1.446 and 1.428 and 1.422 and 1.427 and 1.423 | % Bias ([2]; Day 4, 50 ppm MIT vs no MIT): 1.5% | Sarcosine Oxidase Enzyme Absorbance, MEAN of 1-5 ([2]; Day 4, 50 ppm MIT): 1.35 | Sarcosine Oxidase Enzyme Absorbance, solutions 1-5 ([2]; Day 4, 50 ppm MIT): 1.388 and 1.397 and 1.401 and 1.346 and 1.368 | % Bias ([2]; Day 4, 100 ppm MIT vs no MIT): 2.0% | Sarcosine Oxidase Enzyme Absorbance, MEAN of 1-5 ([2]; Day 4, 100 ppm MIT): 1.35 | Sarcosine Oxidase Enzyme Absorbance, solutions 1-5 ([2]; Day 4, 100 ppm MIT): 1.38 and 1.379 and 1.384 and 1.353 | % Bias ([2]; Day 14, 50 ppm MIT vs no MIT): −8.8% | Sarcosine Oxidase Enzyme Absorbance, MEAN of 1-5 ([2]; Day 14, 50 ppm MIT): 0.24 | Sarcosine Oxidase Enzyme Absorbance, solutions 1-5 ([2]; Day 14, 50 ppm MIT): 0.272 and 0.267 and 0.265 and 0.283 and 0.286 | % Bias ([2]; Day 14, 100 ppm MIT vs no MIT): −34.1% | Sarcosine Oxidase Enzyme Absorbance, MEAN of 1-5 ([2]; Day 14, 100 ppm MIT): 0.18 | Sarcosine Oxidase Enzyme Absorbance, solutions 1-5 ([2]; Day 14, 100 ppm MIT): 0.218 and 0.215 and 0.21 and 0.214 and 0.219 | % Bias ([3]; Day 0, 50 ppm MIT vs no MIT): 4.1% | Creatininase Enzyme Absorbance ([3]; Day 0, 50 ppm MIT): 0.663 and 0.662 and 0.668 and 0.62 and 0.649 | MEAN ([3]; Day 0, 50 ppm MIT): 0.45 | % Bias ([3]; Day 0, 100 ppm MIT vs no MIT): 0.7% | Creatininase Enzyme Absorbance ([3]; Day 0, 100 ppm MIT): 0.765 and 0.721 and 0.731 and 0.712 and 0.723 | MEAN ([3]; Day 0, 100 ppm MIT): 0.53 | % Bias ([3]; Day 4, 50 ppm MIT vs no MIT): 3.3% | Creatininase Enzyme Absorbance ([3]; Day 4, 50 ppm MIT): 0.654 and 0.633 and 0.52 and 0.638 | MEAN ([3]; Day 4, 50 ppm MIT): 0.41 | % Bias ([3]; Day 4, 100 ppm MIT vs no MIT): −2.3% | Creatininase Enzyme Absorbance ([3]; Day 4, 100 ppm MIT): 0.616 and 0.604 and 0.597 and 0.523 | MEAN ([3]; Day 4, 100 ppm MIT): 0.38 | % Bias ([3]; Day 14, 50 ppm MIT vs no MIT): −6.5% | Creatininase Enzyme Absorbance ([3]; Day 14, 50 ppm MIT): 0.732 and 0.689 and 0.701 and 0.686 and 0.725 | MEAN ([3]; Day 14, 50 ppm MIT): 0.44 | % Bias ([3]; Day 14, 100 ppm MIT vs no MIT): 7.0% | Creatininase Enzyme Absorbance ([3]; Day 14, 100 ppm MIT): 0.755 and 0.699 and 0.714 and 0.707 and 0.716 | MEAN ([3]; Day 14, 100 ppm MIT): 0.45 | % Bias ([4]; Day 0, 50 ppm MIT vs no MIT): 10.4% | Creatininase Enzyme Absorbance ([4]; Day 0, 50 ppm MIT): 0.846 and 0.775 and 0.735 and 0.721 and 0.713 | MEAN ([4]; Day 0, 50 ppm MIT): 0.56 | % Bias ([4]; Day 0, 100 ppm MIT vs no MIT): 3.8% | Creatininase Enzyme Absorbance ([4]; Day 0, 100 ppm MIT): 0.937 and 0.871 and 0.866 and 0.827 and 0.836 | MEAN ([4]; Day 0, 100 ppm MIT): 0.67 | % Bias ([4]; Day 4, 50 ppm MIT vs no MIT): 12.2% | Creatininase Enzyme Absorbance ([4]; Day 4, 50 ppm MIT): 0.777 and 0.754 and 0.767 and 0.743 and 0.77 | MEAN ([4]; Day 4, 50 ppm MIT): 0.55 | % Bias ([4]; Day 4, 100 ppm MIT vs no MIT): 9.8% | Creatininase Enzyme Absorbance ([4]; Day 4, 100 ppm MIT): 0.745 and 0.768 and 0.763 and 0.748 and 0.792 | MEAN ([4]; Day 4, 100 ppm MIT): 0.55 | % Bias ([4]; Day 14, 50 ppm MIT vs no MIT): 9.3% | Creatininase Enzyme Absorbance ([4]; Day 14, 50 ppm MIT): 0.828 and 0.801 and 0.702 and 0.794 and 0.79 | MEAN ([4]; Day 14, 50 ppm MIT): 0.55 | % Bias ([4]; Day 14, 100 ppm MIT vs no MIT): 5.1% | Creatininase Enzyme Absorbance ([4]; Day 14, 100 ppm MIT): 0.794 and 0.774 and 0.784 and 0.73 and 0.78 | MEAN ([4]; Day 14, 100 ppm MIT): 0.54

Reference: patent publication US11339419B2, “Scavenger protein(s) for improved preservation of analyte detection sensor(s) and method(s) of use thereof” (Siemens Healthcare Diagnostics Inc., priority 2017, dated 2022)
